Earlier results in patent US20250041318A1, “STERILANTS COMPOSITION, KITS AND METHODS OF USE THEREOF” (priority 2021, published 2025).
pIC50, pKi: −log10 of the molar value. Where two headings read alike, the source gives them in different places.

Columns and labels:
[1] = system: pancreatic cancer; conditions: preclinical mouse model of pancreatic cancer
[2] = target: LDH from goat liver (LDH-A4)
[3] = target: LDH from goat heart (LDH-B4)
[4] = target: LDH from goat testis (LDH-C4)
[5] = system: LDH isozymes (LDH-A4, LDH-B4, LDH-C4)
[6] = Lineweaver-Burk reciprocal plots

## CC(C)[C@]12O[C@H]1[C@@H]1O[C@]13[C@]1(O[C@H]1C[C@H]1C4=C(CC[C@@]13C)C(=O)OC4)[C@@H]2OCOP(=O)(O)O [Minnelide]
[1]
  Efficacy compared with gemcitabine: even more effective than gemcitabine

## Cc1cc2c(C(C)C)c(O)c(O)c(C=O)c2c(O)c1-c1c(C)cc2c(C(C)C)c(O)c(O)c(C=O)c2c1O [gossypol]
[2]; read-out: Ki against NAD
  pKi: 4.03
[2]; read-out: Ki against NADH
  pKi: 4.48
[2]; read-out: Ki against lactate
  pKi: 4.07
[2]; read-out: Ki against pyruvate
  pKi: 4.70
[3]; read-out: Ki against NAD
  pKi: 3.97
[3]; read-out: Ki against NADH
  pKi: 4.37
[3]; read-out: Ki against lactate
  pKi: 4.07
[3]; read-out: Ki against pyruvate
  pKi: 4.47
[4]; read-out: Ki against NAD
  pKi: 4.08
[4]; read-out: Ki against NADH
  pKi: 4.35
[4]; read-out: Ki against lactate
  pKi: 3.90
[4]; read-out: Ki against pyruvate
  pKi: 4.54
[5]; 3.3 mM lactic acid and 1.8 mM NAD at 25 degrees C. and pH 9.0, read-out: IC50 for the lactate oxidation
  pIC50: 3.90
[5]; [6]
  Manner of inhibition when NAD and NADH were varied as substrates: competitive
  Manner of inhibition with respect to pyruvate and lactate: non-competitive
